# US20140004075A1, “PHEROMONE COMPOSITION” (The New Zealand Institute for Plant and Food Research …, priority 2010, published 2014)
# Test system: Epiphyas postvittana
# Assay: Large Vineyard Trial 2 (disruption of catch to four component lures)
# Assay type: in vivo
# Conditions: added at 4:1 ratio E11-14:Ac to Z11-14:Ac (Blends 4, 5)
# Experimental: All compounds used as authentic standards in the chromatographic analysis or in the field trapping experiments were >97% pure by GC analysis and stored at −80° C. until used. Samples of E11-14:Ac, E9E11-14:Ac, E11-14:OH and E11-16:Ac were purchased from Plant Research International, Wageningen, The Netherlands. All blends of synthetic compounds were applied to the large “well” of red rubber septa (West Pharmaceutical Services, Kearney, N.E., USA) in 200 μl of n-hexane GR (Merck Ltd, New Zealand). The solvent was allowed to evaporate in a fume hood and the septa were stored in heat-sealed foil bags at −20° C. until ready for use. For traps used in assessing disruption, lures contained the four component lure at 1 mg loading with the blends shown in Table 1. […]
# Traps were maintained weekly as a short central row transect in each case, with 3 traps containing the four component lure. […] For both trials, the number of moths in the traps was recorded each week. […]
# For both Large Vineyard Trials 1 and 2, counts for each date were analysed. In addition, the total pre-treatment and post-treatment counts were analysed. […] Random effects assessed were blocks (replicates), plots within blocks, and spatial position (rows and column as in the Trial plans). In addition to the treatments, for the post-treatment counts, a co-variate for the trap counts in the last pre-treatment week was assessed as a fixed effect. […]
smiles,measurement,value
"CC/C=C\CCCCCCCCCCOC(C)=O [Z11-14:Ac, (Z)-11-tetradecenyl acetate]",effect of the inhibitor on disruption,antagonistic to disruption
